According to BindingDB's records for doi:10.1016/j.bmcl.2008.07.123 (Bristol-Myers Squibb, 2008):
pIC50: −log10 of the molar value.

test: Antagonist activity at CCR2 in human PBMC assessed as MCP1-induced chemotaxis

SMILES	pIC50
CCCCN1CCC(NC(=O)c2ccc(SC)cc2)C(NC(=O)CNC(=O)c2cc(C(F)(F)F)ccc2N)C1 (racemic) [(+/-)-2-amino-N-(2-(1-butyl-4-(4-(methylthio)benzamido)piperidin-3-ylamino)-2-oxoethyl)-5-(trifluoromethyl)benzamide]	7.76
CCCCN1CCC(NCc2ccc(SC)cc2)C(NC(=O)CNC(=O)c2cc(C(F)(F)F)ccc2N)C1 (racemic) [(+/-)-2-amino-N-(2-(1-butyl-4-(4-(methylthio)benzylamino)piperidin-3-ylamino)-2-oxoethyl)-5-(trifluoromethyl)benzamide]	7.72
CSc1ccc(C(=O)NC2CCN(C)CC2NC(=O)CNC(=O)c2cc(C(F)(F)F)ccc2N)cc1 (racemic) [(+/-)-2-amino-N-(2-(1-methyl-4-(4-(methylthio)benzamido)piperidin-3-ylamino)-2-oxoethyl)-5-(trifluoromethyl)benzamide]	7.41
CSc1ccc(CNC2CCN(C)CC2NC(=O)CNC(=O)c2cc(C(F)(F)F)ccc2N)cc1 (racemic) [(+/-)-2-amino-N-(2-(1-methyl-4-(4-(methylthio)benzylamino)piperidin-3-ylamino)-2-oxoethyl)-5-(trifluoromethyl)benzamide]	7.56
CCCN1CCC(NCc2ccc(SC)cc2)C(NC(=O)CNC(=O)c2cc(C(F)(F)F)ccc2N)C1 (racemic) [(+/-)-2-amino-N-(2-(4-(4-(methylthio)benzylamino)-1-propylpiperidin-3-ylamino)-2-oxoethyl)-5-(trifluoromethyl)benzamide]	8.27
CSc1ccc(CNC2CCNCC2NC(=O)CNC(=O)c2cc(C(F)(F)F)ccc2N)cc1 (racemic) [(+/-)-2-amino-N-(2-(4-(4-(methylthio)benzylamino)piperidin-3-ylamino)-2-oxoethyl)-5-(trifluoromethyl)benzamide]	6.55
CCCN1CCC(NC(=O)c2ccc(SC)cc2)C(NC(=O)CNC(=O)c2cc(N)cc(C(F)(F)F)c2)C1 (racemic) [(+/-)-3-amino-N-(2-(4-(4-(methylthio)benzamido)-1-propylpiperidin-3-ylamino)-2-oxoethyl)-5-(trifluoromethyl)benzamide]	7.60
CCCN1CCC(NCc2ccc(SC)cc2)C(NC(=O)CNC(=O)c2cc(N)cc(C(F)(F)F)c2)C1 (racemic) [(+/-)-3-amino-N-(2-(4-(4-(methylthio)benzylamino)-1-propylpiperidin-3-ylamino)-2-oxoethyl)-5-(trifluoromethyl)benzamide]	7.59
CCCN1CCC(NCc2ccc(SC)cc2)C(NC(=O)CNC(=O)c2cc(C(F)(F)F)ccc2NC(=O)N2CCCC2)C1 (racemic) [(+/-)-N-(2-(2-(4-(4-(methylthio)benzylamino)-1-propylpiperidin-3-ylamino)-2-oxoethylcarbamoyl)-4-(trifluoromethyl)phenyl)pyrrolidine-1-carboxamide]	8.32
CCCN1CCC(NCc2ccc(SC)cc2)C(NC(=O)CNC(=O)c2cc(C(F)(F)F)ccc2NC(=O)NC)C1 (racemic) [(+/-)-N-(2-(4-(4-(methylthio)benzylamino)-1-propylpiperidin-3-ylamino)-2-oxoethyl)-2-(3-methylureido)-5-(trifluoromethyl)benzamide]	8.10
